According to patent publication EP0215136B1, “Hexetidin-containing therapeutically active agent, method for its preparation and its use as a vaginal disinfectant” (Artesan Pharma Gesellschaft mit beschränkter Haftung, priority 1985, dated 1987):

Tests used:
[1] = cited from earlier work
[2] = Stability of hexetidine in aqueous solution; format: physicochemical; conditions: neutral to weakly acidic aqueous solution; rearranges to two isomers up to an equilibrium
From the text: Aufgrund über Jahre geführter Untersuchungen sind die bekannten Methoden nicht geeignet, ein stabiles pharmazeutisches Präparat herzustellen. […] Es lagert sich bis zu einem Gleichgewicht in zwei isomere Substanzen um. Zwar wirken diese im Prinzip gleichartig, jedoch dürfen sie aus gesundheitsrechtlichen Gründen im Endprodukt nur geringfügig vorhanden sein.

[3] = cited from earlier work; remark: listed apart in the source

| SMILES | Löslichkeit in Wasser [1] | Haltbarkeit in wässeriger Lösung [2] | Löslichkeit in Alkohol ([1]; Alkohol) | Löslichkeit in unpolaren organischen Lösungsmitteln ([1]; unpolare organische Lösungsmittel) | Haut- und Schleimhaut-Verträglichkeit ([3]; known property) | Toxizität bei Resorption ([3]; known property) | toxische Wirkung ([3]; use as 0,1% gargle solution over 20 years) |
| --- | --- | --- | --- | --- | --- | --- | --- |
| CCCCC(CC)CN1CN(CC(CC)CCCC)CC(C)(N)C1 (centres unmarked) [Hexetidinsalz] | leicht löslich |  |  |  |  |  |  |
| CCCCC(CC)CN1CN(CC(CC)CCCC)CC(C)(N)C1 (centres unmarked) [Hexetidin, 1,3-Bis-(2-ethylhexyl)-hexahydro-5-methyl-5-pyrimidinamin] | nur schwer löslich | nur kurzfristig haltbar | leicht löslich | leicht löslich | gute | geringe | nie beobachtet |
